In BindingDB's records for doi:10.1073/pnas.95.18.10836 (Merck Research Laboratories, 1998) one finds Ki data, which are given here for three molecules.

In test [1] the target is Somatostatin receptor type 5 (Homo sapiens, UniProt P35346).
In test [2] the target is Somatostatin receptor type 4 (Homo sapiens, UniProt P31391).
The target of test [3] is Somatostatin receptor type 3 (Homo sapiens, UniProt P32745).
Test [4] addresses Somatostatin receptor type 2 (Homo sapiens, UniProt P30874).
The target of test [5] is Somatostatin receptor type 1 (Homo sapiens, UniProt P30872).

pKi: −log10 of the molar value.

Chain of Somatostatin receptor type 3 (P32745 whole entry): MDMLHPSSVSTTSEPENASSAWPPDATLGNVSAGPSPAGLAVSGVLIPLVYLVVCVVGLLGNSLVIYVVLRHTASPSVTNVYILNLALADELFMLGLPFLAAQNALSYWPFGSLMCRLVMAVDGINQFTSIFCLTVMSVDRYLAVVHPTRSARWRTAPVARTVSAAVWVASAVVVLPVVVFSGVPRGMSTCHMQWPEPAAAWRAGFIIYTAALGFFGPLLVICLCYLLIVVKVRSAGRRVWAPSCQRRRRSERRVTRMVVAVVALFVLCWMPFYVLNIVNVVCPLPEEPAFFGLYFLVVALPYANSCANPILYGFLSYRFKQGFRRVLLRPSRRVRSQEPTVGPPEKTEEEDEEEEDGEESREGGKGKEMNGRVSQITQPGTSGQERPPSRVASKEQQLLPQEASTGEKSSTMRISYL
Chain of Somatostatin receptor type 5 (P35346 whole entry): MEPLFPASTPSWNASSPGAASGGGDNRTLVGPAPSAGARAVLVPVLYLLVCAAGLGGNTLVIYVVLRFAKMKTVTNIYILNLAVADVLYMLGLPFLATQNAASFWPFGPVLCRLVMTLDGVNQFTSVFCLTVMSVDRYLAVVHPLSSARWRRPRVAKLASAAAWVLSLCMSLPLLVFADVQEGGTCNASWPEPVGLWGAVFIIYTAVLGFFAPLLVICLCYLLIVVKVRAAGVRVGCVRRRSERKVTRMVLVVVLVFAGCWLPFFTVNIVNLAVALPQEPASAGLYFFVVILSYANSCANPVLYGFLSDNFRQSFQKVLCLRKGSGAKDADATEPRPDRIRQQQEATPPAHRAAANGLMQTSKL
Chain of Somatostatin receptor type 4 (P31391 whole entry): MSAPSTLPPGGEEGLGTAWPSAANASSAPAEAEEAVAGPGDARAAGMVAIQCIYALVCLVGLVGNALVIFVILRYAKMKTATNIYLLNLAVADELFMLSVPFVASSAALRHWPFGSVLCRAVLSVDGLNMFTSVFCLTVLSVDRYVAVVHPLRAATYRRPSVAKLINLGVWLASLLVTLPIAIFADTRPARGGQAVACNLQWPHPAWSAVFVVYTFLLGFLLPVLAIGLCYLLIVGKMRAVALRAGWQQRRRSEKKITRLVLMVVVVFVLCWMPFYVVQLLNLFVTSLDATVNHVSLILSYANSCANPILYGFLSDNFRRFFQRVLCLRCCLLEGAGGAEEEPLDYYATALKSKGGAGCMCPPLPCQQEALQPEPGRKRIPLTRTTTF
Chain of Somatostatin receptor type 1 (P30872 whole entry): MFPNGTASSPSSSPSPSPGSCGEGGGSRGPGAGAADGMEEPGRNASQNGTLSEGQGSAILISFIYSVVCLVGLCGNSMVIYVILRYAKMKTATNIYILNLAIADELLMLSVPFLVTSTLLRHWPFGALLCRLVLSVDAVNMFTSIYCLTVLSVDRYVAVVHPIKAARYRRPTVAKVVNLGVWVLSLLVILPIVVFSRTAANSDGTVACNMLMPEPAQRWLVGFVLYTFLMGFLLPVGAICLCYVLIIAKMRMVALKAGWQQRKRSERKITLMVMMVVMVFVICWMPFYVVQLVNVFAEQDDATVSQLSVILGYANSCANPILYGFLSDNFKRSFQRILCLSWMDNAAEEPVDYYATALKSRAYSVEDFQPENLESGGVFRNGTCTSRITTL
Chain of Somatostatin receptor type 2 (P30874 whole entry): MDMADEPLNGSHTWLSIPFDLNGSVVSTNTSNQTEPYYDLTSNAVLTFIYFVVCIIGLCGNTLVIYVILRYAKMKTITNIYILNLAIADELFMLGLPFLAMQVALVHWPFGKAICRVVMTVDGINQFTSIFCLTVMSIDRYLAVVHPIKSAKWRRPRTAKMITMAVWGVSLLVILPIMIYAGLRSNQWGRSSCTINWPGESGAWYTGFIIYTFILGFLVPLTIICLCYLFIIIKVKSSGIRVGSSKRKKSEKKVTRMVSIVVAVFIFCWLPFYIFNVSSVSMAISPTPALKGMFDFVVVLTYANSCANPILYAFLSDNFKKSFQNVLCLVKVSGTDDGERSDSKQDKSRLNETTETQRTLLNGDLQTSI

Consider `C[C@@H](c1c[nH]c2ccccc12)[C@@H](NC(=O)N1CCC(n2c(=O)[nH]c3ccccc32)CC1)C(=O)NC(CCCCN)C(=O)OC(C)(C)C` (stereo partly drawn) [2-[[(2R,3S)-2-[[4-[(2-Oxo-2,3-dihydro-1H-benzimidazole)-1-yl]piperidino]carbonylamino]-3-(1H-indole-3-yl)butyryl]amino]-6-aminohexanoic acid tert-butyl ester], for which the pKi in test [1] was 6.79; in test [2] it was 7.09; in test [3] it was 7.51; in test [4], 11.00.

Regarding `CC(C)[C@@H]1NC(=O)[C@H](CCCCN)NC(=O)[C@@H](Cc2c[nH]c3ccccc23)NC(=O)[C@H](Cc2ccc(O)cc2)NC(=O)[C@H](C)N(C)C(=O)[C@H](Cc2ccccc2)NC1=O` [CAS_3086456], the pKi in test [1] is 6.63; in test [3], 6.64; in test [5], below 5.00.

For `CC(O)[C@H]1NC(=O)[C@@H](Cc2ccccc2)NC(=O)[C@H]2CCCN2C(=O)[C@H](Cc2ccc(O)cc2)NC(=O)[C@@H](Cc2c[nH]c3ccccc23)NC(=O)[C@@H](CCCCN)NC1=O` (stereo partly drawn) [(5S,8R,11R,14R,17R,19aR)-11-(4-Amino-butyl)-17-benzyl-5-(4-hydroxy-benzyl)-14-(1-hydroxy-ethyl)-8-(1H-indol-3-ylmethyl)-tetradecahydro-3a,6,9,12,15,18-hexaaza-cyclopentacyclooctadecene-4,7,10,13,16,19-hexaone], the negative logarithm of the Ki (pKi) in test [1] was 5.70; in test [2] it was below 5.00; in test [3] it was 5.51; in test [4], 9.31; in test [5], 5.25.
